Read-outs that look alike come from different tables or passages of the source.
Tests used:
EPO/Jak2/Stat5 pathway = assay: EPO CellSensor beta-lactamase reporter assay (irf1-bla TF-1 cells); type: cell-based, human; conditions: for IC50: Homo sapiens; for EPO/IL-6: ratio EPO IP / IL-6 IP
Text: (§1) Inhibition of the activity of JAK kinases (JAK1, JAK2, JAK3 and TYK2) in intact cells was quantified in antagonist mode using CellSensor® transcriptional reporter technology (Life Technologies/ThermoFisher Scientific Inc., Waltham, Mass., USA; https://www.thermofisher.com/us/en/home/industrial/pharma-biopharma drug-discovery-development/target-and-lead-identification-and-validation/pathway-biology/cellular-pathway-analysis/cellsensor-cell-lines.html), in three independent cell lines engineered to detect IL4, IL6 and EPO signaling. In brief, CellSensor® cell lines (see details below for each assay) carrying a stably integrated β-Lactamase reporter gene under control of specific cis-regulatory STAT elements responsive to the pathway being monitored were pre-treated with test compounds serially diluted in DMSO (see preparation and dosing of compounds and agonist cytokines section).
(§2) Incubation with compounds, cytokines and LiveBLAzer™ were carried out at 37° C. in a tissue culture incubator maintained at 90% humidity and 5% CO2.
Erythropoietin (EPO)—JAK2—STAT5 Pathway
CellSensor irf1-bla TF-1 cells carry a stably integrated β-Lactamase reporter gene under control of the STAT5 Response Elements present in the Interferon Regulatory Factor I (IRF1) gene promoter.
(§3) Each CellSensor® cell line was subsequently plated as per supplier's instructions (30,000 cells in 32 μL/well) and mixed with the compound. Following a 60 minute incubation, cells were subsequently stimulated by addition of 8 μL of cognate cytokine (EC80 dose of IL4, IL6 and EPO) and incubated for an additional 3 hours, before adding LiveBLAzer™-FRET B/G substrate.
(§4) The IL-6 assay identifies agents that inhibit the beta-lactamase reporter activity initiated through stimulation of the IL-6R/JAK1/2/Stat3 pathway with recombinant human IL-6. The EPO assay identifies agents that inhibit the beta-lactamase reporter activity initiated through stimulation of the EPO/Jak2/Stat5 pathway with human EPO. Inhibition of EPO signaling leads to an inability to recover from anemia of chronic disease. […] That is, it is desirable for the EPO/IL-6 IC50 ratios to be a relatively large number.

JAK2 = JAK2 (Homo sapiens (Human), UniProt O60674); assay: JAK biochemical HTRF enzyme assay, JAK2; conditions: for JAK2/1: ratio JAK2 IC50 / JAK1 IC50
Method: (§5) The ability of compounds to inhibit the activity of JAK1, JAK2, JAK3, and Tyk2 was measured using a recombinant purified GST-tagged catalytic domain for each enzyme (InVitrogen/Life Technologies/ThermoFisher Scientific Inc., Waltham, Mass., USA; catalogue numbers: M4290(JAK1), M4290(JAK2), M4290(JAK3), M4290(Tyk2)) in an HTRF format biochemical assay.
(§6) Subsequent reagent additions employed an Agilent™ Bravo™ liquid handling system (Aligent Technologies, Santa Clara, Calif., USA). […] After equilibration, 2 μL of 10×ATP in 1× assay buffer was added to initiate the kinase reaction and the plates were shaken and then incubated at ambient temperature for 120 minutes. […] After normalization to untreated controls, the percent inhibition of the HTRF signal at each compound concentration was calculated. The plot of percent inhibition versus the log of compound concentration was fit with a 4-parameter dose response equation to calculate IC50 values.

[1] = tested on: IL-6R/JAK1/2/Stat3 pathway; assay: IL6 CellSensor beta-lactamase reporter assay (SIE-bla ME-180 cells); type: cell-based; conditions: Homo sapiens
Text: as §1, §2
Interleukin 6 (IL6)—JAK1/JAK2—STAT4 Pathway
CellSensor™ SIE-bla ME-180 cells carrying a stably integrated β-Lactamase reporter gene under control of the Sis-Inducible Element (SIE).
as §3, §4

JAK1 = JAK1 (Homo sapiens (Human), UniProt P23458); assay: JAK biochemical HTRF enzyme assay, JAK1
Method: as §5, §6

JAK3 = JAK3 (Homo sapiens (Human), UniProt P52333); assay: JAK biochemical HTRF enzyme assay, JAK3; conditions: reference compound, mean +/- spread across assay runs
Method: as §5, with “assay. The reactions employed a common peptide substrate, LCB-[…]-NH2 (Merck Sharp & Dohme, Kenilworth, N.J., USA).” for “assay.”
(§7) The basic assay protocol is as follows: First, 250 nL of diluted compounds in DMSO were dispensed into the wells of a dry 384-well Black plate (GreinerFluotrac™ catalog number: 781076; Greiner Bio-One GmbH, Frickenhausen, Germany) using a Labcyte Echo® 555 acoustic dispenser (Clarcyte, Inc, Sunnyvale, Calif., USA). Subsequent reagent additions employed an Agilent™ Bravo™ liquid handling system (Aligent Technologies, Santa Clara, Calif., USA). […] After equilibration, 2 μL of 10×ATP in 1× assay buffer was added to initiate the kinase reaction and the plates were shaken and then incubated at ambient temperature for 120 minutes. […] HTRF signal=10,000*665 nm reading/615 nm reading. After normalization to untreated controls, the percent inhibition of the HTRF signal at each compound concentration was calculated. […]

Tyk2 = Tyk2 (Homo sapiens (Human), UniProt P29597); assay: JAK biochemical HTRF enzyme assay, Tyk2; conditions: reference compound, mean +/- spread across assay runs
Method: as §5, with “assay. The reactions employed a common peptide substrate, LCB-[…]-NH2 (Merck Sharp & Dohme, Kenilworth, N.J., USA).” for “assay.”
as §7

[2] = tested on: Interleukin 4 (IL4)—JAK1/JAK3—STAT6 Pathway; assay: IL4 CellSensor beta-lactamase reporter assay (STAT6-bla RA-1 cells); type: cell-based; conditions: reference compound, mean +/- spread across assay runs
Text: as §1, with “section). Following incubation with compounds, IL4, IL6, or EPO were added to each cognate cell line at a concentration equal to a dose necessary to achieve 80% of the maximal response (EC80).” for “section).”
as §2
Interleukin 4 (IL4)—JAK1/JAK3—STAT6 Pathway […]

[3] = irf1-bla TF-1 cells, EPO at EC80, read-out: EPO IP
[4] = HTRF, GST-tagged catalytic domain, ATP 8.5 μM
[5] = SIE-bla ME-180 cells, IL6 at EC80, read-out: IL-6 IP
[6] = HTRF, GST-tagged catalytic domain, ATP 31.8 μM
[7] = reference compound, mean +/- spread across assay runs

Chain of JAK1 (P23458 875-1153): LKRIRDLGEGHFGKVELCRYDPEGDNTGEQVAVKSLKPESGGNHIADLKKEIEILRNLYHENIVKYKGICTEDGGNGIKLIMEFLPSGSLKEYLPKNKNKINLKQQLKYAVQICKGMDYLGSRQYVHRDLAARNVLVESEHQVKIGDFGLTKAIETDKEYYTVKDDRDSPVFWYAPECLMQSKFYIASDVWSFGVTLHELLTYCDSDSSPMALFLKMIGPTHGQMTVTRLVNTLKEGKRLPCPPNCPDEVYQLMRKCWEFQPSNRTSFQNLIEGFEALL
Chain of JAK2 (O60674 849-1124): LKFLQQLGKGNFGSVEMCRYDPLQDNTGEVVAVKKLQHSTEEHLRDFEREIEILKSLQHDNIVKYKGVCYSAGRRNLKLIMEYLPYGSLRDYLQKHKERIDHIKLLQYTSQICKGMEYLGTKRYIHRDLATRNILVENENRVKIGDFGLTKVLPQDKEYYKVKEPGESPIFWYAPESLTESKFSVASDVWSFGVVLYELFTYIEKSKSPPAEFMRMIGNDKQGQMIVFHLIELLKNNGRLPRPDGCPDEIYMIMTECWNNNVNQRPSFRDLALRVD
Chain of JAK3 (P52333 822-1111): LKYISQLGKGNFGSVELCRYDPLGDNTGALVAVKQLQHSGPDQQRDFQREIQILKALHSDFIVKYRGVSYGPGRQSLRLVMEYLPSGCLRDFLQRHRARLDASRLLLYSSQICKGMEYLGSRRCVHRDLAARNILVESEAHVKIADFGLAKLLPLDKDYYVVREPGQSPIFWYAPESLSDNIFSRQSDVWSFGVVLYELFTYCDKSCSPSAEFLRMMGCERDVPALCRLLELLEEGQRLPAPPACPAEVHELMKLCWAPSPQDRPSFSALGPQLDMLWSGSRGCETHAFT
Chain of Tyk2 (P29597 897-1176): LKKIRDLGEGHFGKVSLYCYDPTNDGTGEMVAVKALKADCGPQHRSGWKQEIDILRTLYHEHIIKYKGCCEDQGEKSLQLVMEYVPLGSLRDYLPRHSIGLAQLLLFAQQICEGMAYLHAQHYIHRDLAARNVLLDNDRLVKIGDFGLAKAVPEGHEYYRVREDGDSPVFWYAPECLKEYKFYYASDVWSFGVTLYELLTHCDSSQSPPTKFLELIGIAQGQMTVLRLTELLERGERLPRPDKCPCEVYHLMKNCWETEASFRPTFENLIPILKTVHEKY

IC50 (EPO/Jak2/Stat5 pathway; [3])	IC50 (JAK2; [4])	JAK2/1 (JAK2)	IC50 [1, 5]	IC50 (JAK1; [6])	Structure (SMILES)	EPO/IL-6 (EPO/Jak2/Stat5 pathway)	other results
280 nM	3.88 nM	32	15 nM	0.12 nM	COc1cc(Nc2nn([C@H]3COCC[C@@H]3C#N)cc2C(N)=O)ccc1Cl [Ex-1, 3-((4-Chloro-3-methoxyphenyl)amino)-1-((3R,4S)-4-cyanotetrahydro-2H-pyran-3-yl)-1H-pyrazole-4-carboxamide]	19	–
132 nM	–	–	–	–	N#C[C@H]1CCOC[C@@H]1n1cc(C(N)=O)c(Nc2ccc(Cl)cc2)n1 [Comp. Ex-1, reference compound]	9	–
–	–	–	–	–	CN(C)[C@H]1CC[C@H](n2cc(C(N)=O)c(Nc3ccc(Cl)cc3)n2)[C@@H](C#N)C1 (single isomer, unassigned) [Reference Compound No. 1, 3-[(4-chlorophenyl)amino]-1-[(1S,2S,4S or 1R,2R,4R)-2-cyano-4-(dimethylamino)cyclohexyl]-1H-pyrazole-4-carboxamide]	–	IC50 (JAK3): 1350 nM; IC50 (Tyk2): 14 nM; IC50 [2]: 25.7 nM; IC50 (JAK1; [7]): 1.47 nM
649 nM	5.48 nM	22	22 nM	0.25 nM	CSc1cc(Nc2nn([C@H]3COCC[C@@H]3C#N)cc2C(N)=O)ccc1Cl [Ex-2, 3-((4-chloro-3-(methylthio)phenyl)amino)-1-((3R,4S)-4-cyanotetrahydro-2H-pyran-3-yl)-1H-pyrazole-4-carboxamide]	30	–
89 nM	–	–	14 nM	–	N#Cc1ccc(Nc2nn([C@H]3COCC[C@@H]3C#N)cc2C(N)=O)cc1 [Comp. Ex-4, reference compound]	6	–
309 nM	3.04 nM	19	17 nM	0.16 nM	Cc1noc2ccc(Nc3nn([C@H]4COCC[C@@H]4C#N)cc3C(N)=O)cc12 [Ex-5, 1-((3R,4S)-4-cyanotetrahydro-2H-pyran-3-yl)-3-((3-methylbenzo[d]isoxazol-5-yl)amino)-1H-pyrazole-4-carboxamide]	18	–
744 nM	9.7 nM	20	47 nM	0.49 nM	CC(C)c1cc(Nc2nn([C@H]3COCC[C@@H]3C#N)cc2C(N)=O)ccc1C#N [Ex-4, 3-((4-cyano-3-isopropylphenyl)amino)-1-((3R,4S)-4-cyanotetrahydro-2H-pyran-3-yl)-1H-pyrazole-4-carboxamide]	16	–
80 nM	–	–	14 nM	–	N#C[C@H]1CCOC[C@@H]1n1cc(C(N)=O)c(Nc2ccc(OC(F)(F)F)cc2)n1 [Comp. Ex-3, reference compound]	6	–
431 nM	3.28 nM	49	19 nM	0.07 nM	COc1cc(Nc2nn([C@H]3COCC[C@@H]3C#N)cc2C(N)=O)ccc1C#N [Ex-3, 3-((4-cyano-3-methoxyphenyl)amino)-1-((3R,4S)-4-cyanotetrahydro-2H-pyran-3-yl)-1H-pyrazole-4-carboxamide]	23	–
2170 nM	–	–	69 nM	–	N#C[C@H]1CCOC[C@@H]1n1cc(C(N)=O)c(Nc2ccc(Cl)c(Cl)c2)n1 [Comp. Ex-2, reference compound]	31	–
–	–	–	–	–	CS(=O)(=O)c1ccc(Nc2nn([C@H]3CCCC[C@@H]3C#N)c3cc[nH]c(=O)c23)cc1 [Reference Compound No. 2, (1S,2S)-2-(3-{[4-(methylsulfonyl)phenyl]amino}-4-oxo-4,5-dihydro-1H-pyrazolo[4,3-c]pyridin-1-yl)cyclohexanecarbonitrile, reference compound]	–	IC50 (EPO/Jak2/Stat5 pathway; TF-1, reference compound, mean +/- spread across assay runs, read-out: EPO CellSensor assay IC50): 39.5 nM; potency spread across the IL6, EPO and IL4 CellSensor assays (EPO/Jak2/Stat5 pathway; across all three CellSensor assays): two to three; IC50 (JAK2; [7]): 1 nM; IC50 ([1]; ME-180, reference compound, mean +/- spread across assay runs, read-out: IL6 CellSensor assay IC50): 21 nM; IC50 (JAK3): 21.9 nM; IC50 (Tyk2): 0.28 nM; IC50 [2]: 11.1 nM; IC50 (JAK1; [7]): 0.17 nM

Reference: patent US10766883B2, “Aminopyrazoles as janus kinase inhibitors” (Merck Sharp & Dohme Corp., priority 2016, dated 2020)
